From patent publication US11535584B2, “Homovanillinic acid ester, in particular for creating a warm and/or pungent sensation” (SYMRISE AG, priority 2014, dated 2022)
Like-named read-outs stand apart in the source and are kept apart here.

Tests used:
[1] = EFSA / Scientific Committee on Food opinion 2002; cited from earlier work
[2] = tested on: tasters; assay: Tasting of esters of homovanillinic acid: pungency score and profile (Example 5); type: in vivo; conditions: for Pungency assessed: scale of 1 (very weak)-9 (very strong)
[3] = tested on: tasters; assay: as above; type: in vivo; conditions: 25 ppm in 5% sugar solution; for Pungency assessed: scale of 1 (very weak)-9 (very strong), 4 tasters
Description: The substance to be tasted was dissolved in ethanol and the ethanolic solution was then diluted with 5% sugar solution (final concentration: 25 ppm). For the tasting, the oral cavity was rinsed and spat out by 4 tasters with approx. 5 ml of the sugar solution.

[4] = Warming effect compared to vanillyl butyl ether (Example 11); type: in vivo; conditions: 4-10 ppm in 5% sugar solution vs 10 ppm vanillyl butyl ether
Description: Test solutions with 4-10 ppm ester of homovanillic acid were sensorially evaluated in a 5% sugar solution and were compared to a test solution of 10 ppm vanillyl butyl ether.

[5] = Tasting and sensorial assessment of isolated ethyl homovanillate (17) (Example 2); type: in vivo
Description: The primary reaction mixture is pre-fractionated using medium-pressure liquid chromatography (MPLC) (column material: Lewatit VP OC 1064; water/ethanol 3/1; v/v). Subsequently, further separation is carried out via preparative high-pressure liquid chromatography (pHPLC) (column: Phenomenex Luna C18 5μ 150×21.2 mm, flow rate 30 ml/min, detection 210 nm) in the isocratic mode (63% H2O, 37% MeOH). Final isolation of ethyl homovanillate (17) is carried out via semi-preparative high-pressure liquid chromatography (sPHPLC) in the gradient mode (column: YMC Triart C18 5μ 250×10 mm; A: H2O; B: MeOH; 0 min 65% A, 35% B; 25 min 40% A, 60% B; 30 min 100% B; flow rate 3 ml/min; detection: 250 nm). The obtained ethyl homovanillate (17) was subsequently freeze-dried and tasted and sensorially assessed at a dosage of 100 ppm in 5% sugar solution, 0.5% salt solution, 500 ppm caffeine solution and water.

[6] = tested on: testers; assay: Sensorial assessment of combinations with grains of paradise extract, nonivamide and capsicum extract (Example 9); type: in vivo; conditions: for Effect in combination of nonivamide, capsicum extract and ester: versus combinations without esters (examples 26* and 28*)
[7] = tested on: testers; assay: Increase in the alcohol pungency of an ethanolic solution (Example 10); type: in vivo
Description: On the basis of a 5% sugar solution with 20% ethanol (example 1), different concentrations (10-100 ppm) of ethyl-2-(4-hydroxy-3-methoxyphenyl) acetate (17), polymethoxylated flavone PMF 60 (Miritz) and combinations (10-50 ppm) of ethyl-2-(4-hydroxy-3-methoxyphenyl) acetate (17) with polymethoxylated flavone PMF 60 (Miritz) (20 ppm) were compared with a second base solution (5% sugar solution with 40% ethanol) (Tab. 4). To this end, 5 testers rinsed their mouth with about 5 ml of the relevant solution to be tasted, spat out the solution and assessed the taste sensation.

[8] = tested on: rat eyes; conditions: Szolcsanyi, Jancso-Gabor 1975; cited from earlier work
[9] = tested on: tasters; assay: Isointensity of esters compared to nonivamide and a capsicum extract (Example 6); type: in vivo; conditions: 10 ppm of the ester in 5% sugar solution
Description: The substance to be tasted was dissolved in ethanol and the ethanolic solution was then diluted with 5% sugar solution (final concentration: 10 ppm). As reference, capsicum extract with 1,000,000 SHU (0.3-10 ppm) and nonivamide (0.1-1 ppm) were prepared in 5% sugar solution in increasing concentration. For the tasting, the oral cavity was rinsed and spat out by 4 tasters with approx. 5 ml of the solution to be tasted and assessed against the reference series.

[10] = tested on: trained panelists; assay: Time vs. intensity pungency profile compared with nonivamide (Example 8); type: in vivo; conditions: 25 ppm vs 0.5 ppm nonivamide in 5% sugar solution
Description: To obtain a time vs. intensity profile, trained panelists (n=8-10) rinsed their oral cavity with a gulp of a sample solution (5 ml of a 5% sugar solution). Then, the intensity of the characteristic pungency was assessed at defined time intervals on the basis of a scale without fixed graduation.

[11] = 50 and 100 ppm (examples 17 and 18)

For `COc1cc(CNC(=O)CCCC/C=C/C(C)C)ccc1O` [capsaicin, N-(4-hydroxy-3-methoxybenzyl)-8-methyl-(6E)-nonenoic acid amide], the “Evaluation of the genotoxic potential” value [1] is listed as “negative result”.

With `COc1cc(CC(=O)OC/C=C/c2ccccc2)ccc1O` [compound 2, [(E)-Cinnamyl]-2-(4-hydroxy-3-methoxyphenyl) acetate] the Profile [2] was “delayed effect, very pungent, slightly warming, somewhat mouthwatering” and the Pungency assessed [2] was 5-6.

With `COc1cc(CC(=O)OC(C)C)ccc1O` [compound 7, Isopropyl-2-(4-hydroxy-3-methoxyphenyl) acetate] the Profile [3] was “Late onset, tingling, warming, pungent, somewhat delayed, not long-lasting, pleasant” and the Pungency assessed [3] was 3.

With `CCC(C)OC(=O)Cc1ccc(O)c(OC)c1` (stereo not drawn) [compound 8, sec-Butyl-2-(4-hydroxy-3-methoxyphenyl) acetate] the Profile [3] was “very delayed onset, tingling, mainly warming, gradually increasing pungency” and the Pungency assessed [3] was 3.

For `COc1cc(CC(=O)OCC(C)C)ccc1O` [compound 9, Isobutyl-2-(4-hydroxy-3-methoxyphenyl) acetate], the Profile [3] was “quick onset of pungency, warming, slightly biting pungency”, the Pungency assessed [3] was 4-5 and the “Warming effect compared to vanillyl butyl ether” value [4] was “warming effect similar to vanillyl butyl ether, but which lasted for a longer period”.

With `CCCCCCCOC(=O)Cc1ccc(O)c(OC)c1` [compound 14, Heptyl-2-(4-hydroxy-3-methoxyphenyl) acetate] the Profile [2] was “slightly delayed effect, burning, pungent, warming” and the Pungency assessed [2] was 3.

With `CCOC(=O)Cc1ccc(O)c(OC)c1` [compound 17, Ethyl-2-(4-hydroxy-3-methoxyphenyl) acetate] the Taste description ([5]; 100 ppm in 0.5% salt solution) was “Pungent”, the Taste description ([5]; 100 ppm in 5% sugar solution) was “Pungent, warming” and the Taste description ([5]; 100 ppm in water) was “Pungent, stinging, slightly warming”. For the same compound, the Profile [3] was “slightly warming, somewhat pungent”, the Pungency assessed [3] was 1-2 and the “Additional effect in combination with capsicum extract at all concentrations” value ([6]; 2 and 5 ppm capsicum extract with 1,000,000 SHU) was “pleasantly warming effect, which remained even after the pungency sensation receded”. The “Effect on pungency in combination with grains of paradise extract” value ([6]; 10 and 25 ppm with 30 ppm grains of paradise extract, 5% sugar solution (examples 2 and 3)) was “faster onset of the pungency”, the “Assessment of the pungency sensation in combination with 2 ppm capsicum extract” value [6, 11] was “pleasant and not long-lasting” and the “Effect on pungency in combination with 2 ppm capsicum extract with 1,000,000 SHU” value [6, 11] was “same intensifying and faster onsetting effect”. The “Effect on pungency in combination with 5 ppm capsicum extract with 1,000,000 SHU” value ([6]; 50 and 100 ppm (examples 22 and 23)) was “quick decline in the pungency”, the “Onset of pungency in combination with nonivamide” value ([6]; 50 and 100 ppm with 0.2 or 0.5 ppm nonivamide) was “faster onset of the pungency” and the “Intensification of pungency in combination with nonivamide” value ([6]; 50 and 100 ppm with 0.2 or 0.5 ppm nonivamide (examples 7, 8, 12, 13)) was “the pungency of nonivamide was intensified at both of the tested concentrations, wherein this intensification corresponded to more than just the additive effect”. The “Intensification of the pungency, 2 ppm versus 5 ppm capsicum extract” value ([6]; combination with capsicum extract with 1,000,000 SHU) was “significantly higher with 2 ppm capsicum extract with 1,000,000 SHU than with 5 ppm”, the “Effect in combination of nonivamide, capsicum extract and ester” value [6] was “quicker decline in the pungency sensation as well as a warming effect” and the “Effect of combination with polymethoxylated flavone PMF 60” value ([7]; 10-50 ppm with 20 ppm PMF 60 in 5% sugar solution with 20% ethanol (examples 7-9)) was “an increase of the burning sensation was additionally generated, and an extension of these effects was also achieved”. For the same compound, the “Effect on taste sensation of base solution” value ([7]; 10 ppm in 5% sugar solution with 20% ethanol (example 2)) was “an increase and an extension of the burning sensation in the mouth”, the “Effect on taste sensation of base solution” value ([7]; 20 ppm and 50 ppm in 5% sugar solution with 20% ethanol) was “additional pungency effect” and the “Nasal effect of combination with PMF 60” value ([7]; compared to 5% sugar solution with 40% ethanol) was “did not show any nasal effect”. For the same compound, the “Sensorially preferred concentration in combination with PMF 60” value ([7]; with 20 ppm PMF 60 in 5% sugar solution with 20% ethanol) was 20-50 ppm and the “Warming effect compared to vanillyl butyl ether” value [4] was “milder warming effect”.

In the case of `CCCOC(=O)Cc1ccc(O)c(OC)c1` [compound 18, Propyl-2-(4-hydroxy-3-methoxyphenyl) acetate], the Profile [3] was “weak and delayed pungency, gradually warming, tingling”, the Pungency assessed [3] was 4-5 and the “Warming effect compared to vanillyl butyl ether” value [4] was “long-lasting warming effect, but which occurred at a comparatively later time”. For the same compound, the “Pain sensation in rat eyes” value [8] was “active”.

With `CCCCOC(=O)Cc1ccc(O)c(OC)c1` [compound 19, Butyl-2-(4-hydroxy-3-methoxyphenyl) acetate] the Profile [3] was “immediate pungency, quick decrease”, the Pungency assessed [3] was 7 and the “Concentration of capsicum extract with 1,000,000 SHU of comparable pungency” value [9] was about 4.5 ppm. For the same compound, the “Nonivamide concentration of comparable pungency” value [9] was about 0.3 ppm, the “Decrease in pungency compared with nonivamide” value [10] was “considerably faster decrease in pungency” and the “Onset of the pungency compared with nonivamide” value ([10]; identical total intensity) was “faster onset of the pungency”. For the same compound, the “Intensification in combination with capsicum extract versus additive effect” value ([6]; 10 and 25 ppm with 2 or 5 ppm capsicum extract) was “the intensifications were more significant than just an additive effect”, the “Effects in combination with capsicum extract” value ([6]; 10 and 25 ppm with 2 or 5 ppm capsicum extract (examples 19, 20, 24, 25)) was “the same effects were detected even at lower concentrations” and the “Effect in combination of nonivamide, capsicum extract and ester” value [6] was “quicker decline in the pungency sensation as well as a warming effect”. The “Warming effect compared to vanillyl butyl ether” value [4] was “more marked warming effect”.

In the case of `CCCCCCOC(=O)Cc1ccc(O)c(OC)c1` [compound 21, Hexyl-2-(4-hydroxy-3-methoxyphenyl) acetate], the Profile [3] was “clearly pungent, slightly delayed effect, warming, relatively fast decrease in pungency”, the Pungency assessed [3] was 9 and the “Concentration of capsicum extract with 1,000,000 SHU of comparable pungency” value [9] was about 8.5 ppm. For the same compound, the “Nonivamide concentration of comparable pungency” value [9] was about 0.5 ppm.

In the case of `COc1cc(CC(=O)OCCCc2ccccc2)ccc1O` [compound 22, 3-Phenylpropyl-2-(4-hydroxy-3-methoxyphenyl) acetate], the Profile ([2]; 2 ppm in 5% sugar solution) was “delayed effect, pungent, warming, slightly tingling” and the Pungency assessed ([2]; 2 ppm in 5% sugar solution) was 5.

With `COc1cc(CC(=O)OCCCCc2ccccc2)ccc1O` [compound 23, 4-Phenylbutyl-2-(4-hydroxy-3-methoxyphenyl) acetate] the Profile ([2]; 2.5 ppm in 5% sugar solution) was “delayed effect, pungent, delayed warming, burning, slightly tingling” and the Pungency assessed ([2]; 2.5 ppm in 5% sugar solution) was 4-5.

For `CCCCCCCCCCOC(=O)Cc1ccc(O)c(OC)c1` [decyl-2-(4-hydroxy-3-methoxyphenyl) acetate, reference compound], the Profile [3] was “weakly pungent, delayed, pear-like and greasy-pulpy secondary effect, throat burns more than the tongue” and the Pungency assessed [3] was 2.

For `COC(=O)Cc1ccc(O)c(OC)c1` [methyl ester of homovanillic acid], the “Pain sensation in rat eyes” value [8] is given as “active”.

In the case of `CCCCCCCCOC(=O)Cc1ccc(O)c(OC)c1` [octyl-2-(4-hydroxy-3-methoxy-phenyl) acetate, reference compound], the Profile [3] is given as “slow onset of pungency, late, delayed, greasy-pulpy secondary effect, burning”, the Pungency assessed [3] is given as 7 and the “Pain sensation in rat eyes” value [8] is given as “active”.
